Data on eleven compounds can be found in article PMC6458156, “Improved predictions of time-dependent drug-drug interactions by determination of cytosolic drug concentrations” (Scientific Reports, 2019).

As a reminder, the IC50 is the midpoint of a concentration-inhibition curve. What is called Ki is a measure of affinity in units of concentration, obtained from inhibition or displacement.

Series [1] has as its system OCT2. The note with it: read-out: IC50 (OCT2); ref DIDB; cited from earlier work.
The subject of series [2] is OATP1A2. The conditions noted are these: read-out: IC50 (OATP1A2); ref DIDB; cited from earlier work.
The subject of series [3] is CYP3A4. Also noted: method as in earlier work. The note with it: ref DIDB; cited from earlier work.
Series [4] concerns P-gp. The conditions noted are these: read-out: Ki (P-gp); ref DIDB; cited from earlier work.
Series [5] has as its system MATE2-K. The note with it: read-out: IC50 (MATE2-K); ref DIDB; cited from earlier work.
Series [6] deals with CYP2D6. Also noted: method as in earlier work. The conditions noted are these: in HLM; ref DIDB; cited from earlier work.
Series [7] concerns OCT1. The note with it: read-out: IC50 (OCT1); ref DIDB; cited from earlier work.
The subject of series [8] is MATE1. The note with it: read-out: IC50 (MATE1); ref DIDB; cited from earlier work.
For series [9], the target named is T1, CYP3A (Homo sapiens, UniProt P08684). The series can be described thus: in vitro. The note with it: microsomes, pH 7.4.
Series [10] addresses T1, CYP3A. Description: in vitro.
For series [11], the target named is T1, CYP3A. The conditions noted are these: probe drugs midazolam and simvastatin, in vivo; ref University of Washington Drug Interaction Database; cited from earlier work.
The conditions of series [12]: cited from earlier work; for Fa: fraction absorbed, 6,18 (diltiazem), 26-28 (nefazodone), 29,30 (nilotinib), 29,31 (pazopanib); for Fa / ka: ref 5,17 (crizotinib), 19-21 (erythromycin), 22-25 (imatinib), 20,32,33 (roxithromycin), 4,34 (telithromycin); for ka: absorption rate constant, 35-40 (verapamil); for Cave,ss: average plasma concentration at steady-state; for Cmax,ss: maximum plasma concentration at steady-state.

Series [13] can be described thus: Intracellular fraction of unbound drug (fu,cell), dialysis of human hepatocyte homogenate. The conditions noted are these: homogenate of cryopreserved human hepatocytes, geometrical mean ± SD of triplicates. In kind it is in vitro ADME.
Series [14] concerns human hepatocytes. Description: Intracellular drug accumulation ratio (Kp) and intracellular bioavailability (Fic) in cryopreserved human hepatocytes. The conditions noted are these: intracellular bioavailability = fu,cell × Kp; human hepatocytes. In kind it is in vitro ADME.
Series [15] relates to human hepatocytes. The series can be described thus: Cytosolic drug accumulation ratio (Kpcyto) and cytosolic bioavailability (Fcyto) in human hepatocytes with chloroquine. The note with it: for Kpcyto: cellular drug accumulation ratio in the presence of chloroquine (100 µM, 45 min), 0.5 µM drug; for Fcyto: cytosolic bioavailability = fu,cell × Kpcyto; for Fcyto / Fic/Fcyto: human hepatocytes; for Fic/Fcyto: ratio of intracellular to cytosolic bioavailability. In kind it is in vitro ADME.

Series [16] can be described thus: Non-specific binding of drugs in human liver microsomes (fu,mic), rapid equilibrium dialysis. In kind it is in vitro ADME. The conditions noted are these: unbound drug fraction in the microsomal mixture, inhibitor 1 µM, 37 °C. A general note: Microsomes from liver hold many membrane-bound enzymes, among them those of drug oxidation.
Series [17] concerns transporters. Also noted: method as in earlier work. The conditions noted are these: cells wrapped over several lines are given as printed fragments; ref DIDB; cited from earlier work.
The nature of series [18]: Intracellular drug accumulation ratio (Kp) and intracellular bioavailability (Fic) in cryopreserved human hepatocytes. In kind it is in vitro ADME. The conditions noted are these: human, cryopreserved human hepatocytes in suspension; cellular drug accumulation ratio; 0.5 µM drug; no chloroquine; geometrical mean ± SD of triplicates.
For series [19], the system named is CYP3A4. The note with it: midazolam; cited from earlier work.
[20] abbreviates: pH 7.4, KI, inactivation constant, HLM 0.5 mg/ml preincubation 0-30 min, midazolam 20 µM, mean ± SD of triplicates.
The mark [21] stands for this setting: pH 7.4, KI,u, calculated as fu,mic at 0.5 mg/ml × KI.
[22] abbreviates: HLM 0.1 mg/ml, read-out: fu,mic at 0.1 mg/ml.
[23] abbreviates: HLM 0.5 mg/ml, read-out: fu,mic at 0.5 mg/ml.

Where two headings read alike, the source gives them in different places.

T1 sequence (P08684 2-503): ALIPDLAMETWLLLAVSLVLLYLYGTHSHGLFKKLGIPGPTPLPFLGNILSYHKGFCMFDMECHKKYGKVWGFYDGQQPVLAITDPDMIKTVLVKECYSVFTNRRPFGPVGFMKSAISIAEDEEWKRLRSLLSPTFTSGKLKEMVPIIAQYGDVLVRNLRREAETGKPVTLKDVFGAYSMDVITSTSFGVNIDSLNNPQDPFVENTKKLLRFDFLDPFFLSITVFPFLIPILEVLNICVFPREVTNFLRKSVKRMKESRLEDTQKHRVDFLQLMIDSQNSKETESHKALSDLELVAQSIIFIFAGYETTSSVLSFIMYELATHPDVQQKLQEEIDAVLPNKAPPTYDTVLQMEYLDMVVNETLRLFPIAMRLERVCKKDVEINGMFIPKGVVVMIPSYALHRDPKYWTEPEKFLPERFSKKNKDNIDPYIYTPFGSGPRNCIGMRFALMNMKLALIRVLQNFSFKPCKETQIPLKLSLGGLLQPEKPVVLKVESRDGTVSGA

On to `CCN(CC)CCCC(C)Nc1ccnc2cc(Cl)ccc12` (stereo not drawn) [Chloroquine], for which the IC50 is around 100000 nM in [1]; […] in [2]; 150000 nM in [3]; 4000 nM in series [5]; around 50000 nM in [6]; 13000 nM in series [7]. In addition, the IC50 in series [8] is 1500 nM. Further, the Ki in [4] is […].
Consider `Cc1cn(-c2cc(NC(=O)c3ccc(C)c(Nc4nccc(-c5cccnc5)n4)c3)cc(C(F)(F)F)c2)cn1` [Nilotinib], for which, in series [9], 1310 ± 300 nM corresponded to half-maximal inhibition (IC50 at 5 min) and the affinity, expressed as Ki at 5 min, was 128 nM. Besides, the KI (inactivation) in series [10] (setting [20]) came out at 1290 ± 230 nM. For the same compound, in [10] (setting [21]), the KI (inactivation) was 156 nM. The “class of CYP3A inhibitor by increase in AUC of the probe drug” value (“class of CYP3A inhibitor by increase” below) in [11] was “medium (medium inhibitors causing a ≥2 but <5-fold increase)”. For the same compound, the Fa in series [12] is on record as 0.30. In series [13], this compound had a fraction unbound at 4 h of 0.0002. Further, in series [14], the Fic was determined as 0.022 ± 0.001. In [15], the Kpcyto worked out at 51 ± 9 and the Fcyto was determined as 0.008 ± 0.001. Besides, the fraction unbound at 4 h, 1 µM in series [16] (setting [22]) stood at 0.195. Further, the fraction unbound at 4 h, 1 µM in series [16] (setting [23]) was found to be 0.121.
Regarding `C[C@@H](Oc1cc(-c2cnn(C3CCNCC3)c2)cnc1N)c1c(Cl)ccc(F)c1Cl` [Crizotinib], in series [9], the IC50 at 5 min was above 100000 nM and the Ki at 5 min came out at 97400 nM. The compound further gave a Ki in [10] (microsomes, pH 7.4) of 90 nM. This compound also came in with a KI (inactivation) in [10] (setting [20]) of 775 ± 130 nM. Moreover, in [10] (setting [21]), the KI (inactivation) is 91 nM. Also, the “class of CYP3A inhibitor by increase” value in series [11] is given as “medium (medium inhibitors causing a ≥2 but <5-fold increase)”. In addition, in series [12], the ka is 0.817 h⁻¹ and the Fa is reported as 0.4. For the same compound, in series [12] (100 mg qd), the “Cave,ss” value is 45 ng/mL and the “Cmax,ss” value was 86 ng/mL. Also, in [12] (250 mg bid), the “Cave,ss” value was 129 ng/mL and the “Cmax,ss” value was 327 ng/mL. Besides, in series [12] (300 mg bid), the “Cave,ss” value is 169 ng/mL and the “Cmax,ss” value was 420 ng/mL. In addition, the “Substrate of other transporters in vitro” value in [17] is given as “OATP1B1/3, 2B1”. Further, in series [13], the fraction unbound at 4 h stood at 0.0006 ± 0.0001. Also, the Fic in series [14] was 0.044 ± 0.005. Also, the Kp at 0.5 µM in series [18] stood at 75 ± 0.11. For the same compound, in [15], the Kpcyto is on record as 70 ± 0.4 and the Fcyto is reported as 0.041 ± 0.005. For the same compound, the fraction unbound at 4 h, 1 µM in [16] (setting [22]) stood at 0.505. In series [16] (setting [23]), the fraction unbound at 4 h, 1 µM was determined as 0.118.
Take `COc1ccc([C@@H]2Sc3ccccc3N(CCN(C)C)C(=O)[C@@H]2OC(C)=O)cc1` [Diltiazem]: the figures for the “Cmax,ss” value in series [12] (60 mg tid) and in series [12] (240 mg qd) were 70 ng/mL and 166 ng/mL, respectively. Also, the figures for the fraction unbound at 4 h, 1 µM in [16] (setting [22]) and in series [16] (setting [23]) were 0.792 and 0.708, respectively.
In series [9], `CC[C@H]1OC(=O)[C@H](C)C(=O)[C@H](C)[C@@H](O[C@@H]2O[C@H](C)C[C@H](N(C)C)[C@H]2O)[C@](C)(OC)C[C@@H](C)C(=O)[C@H](C)[C@H]2N(CCCCn3cnc(-c4cccnc4)c3)C(=O)O[C@]12C` [Telithromycin] had an IC50 at 5 min of 14100 ± 3500 nM and a Ki at 5 min of 6770 nM. The compound further gave a KI (inactivation) in series [10] (setting [20]) of 1490 ± 190 nM. In series [10] (setting [21]), the KI (inactivation) is 979 nM. In series [11], the “class of CYP3A inhibitor by increase” value is “strong (strong inhibitors of CYP3A, causing a ≥5-fold increase in the area under the concentration-time curve (AUC) of the probe drug)”. For the same compound, in series [12], the ka was 0.95 h⁻¹ and the Fa is on record as 0.92. In [12] (800 mg qd), the “Cave,ss” value is 425 ng/mL and the “Cmax,ss” value is on record as 1,840 ng/ml. Also, the fraction unbound at 4 h in [13] stood at 0.0371 ± 0.0016. Moreover, the Fic in series [14] amounted to 0.25 ± 0.03. For the same compound, the Kp at 0.5 µM in series [18] is 6.6 ± 0.6. Further, the “Kp compared with Kpcyto” value in [15] (absence vs presence of chloroquine, p ≤ 0.05 in Student’s t-test where called significant) was “comparable Kp and Kpcyto”. Also, in series [15], the Kpcyto amounted to 7.24 ± 0.8, the Fcyto is reported as 0.27 ± 0.03 and the Fic/Fcyto turned out to be 0.92. For the same compound, the fraction unbound at 4 h, 1 µM in series [16] (setting [22]) was 0.962. For the same compound, in [16] (setting [23]), the fraction unbound at 4 h, 1 µM was 0.657.
As to `CC[C@H]1OC(=O)[C@H](C)[C@@H](O[C@H]2C[C@@](C)(OC)[C@@H](O)[C@H](C)O2)[C@H](C)[C@@H](O[C@@H]2O[C@H](C)C[C@H](N(C)C)[C@H]2O)[C@](C)(O)C[C@@H](C)C(=O)[C@H](C)[C@@H](O)[C@]1(C)O` [Erythromycin], in series [12], the ka is 0.6 h⁻¹ and the Fa is recorded as 0.65. Further, in series [12] (500 mg tid), the “Cave,ss” value is 361 ng/mL and the “Cmax,ss” value is 821 ng/mL. The fraction unbound at 4 h in [13] amounted to 0.0444 ± 0.0013. The Fic in series [14] is 0.066 ± 0.104. Moreover, the Kp at 0.5 µM in [18] came out at 1.5 ± 2.4. Besides, in series [15], the Kpcyto turned out to be 1.2 ± 4.33 and the Fcyto was 0.052 ± 0.192. For the same compound, in [16] (setting [22]), the fraction unbound at 4 h, 1 µM is 0.64. The fraction unbound at 4 h, 1 µM in [16] (setting [23]) was 0.586.
Take `Cc1ccc(NC(=O)c2ccc(CN3CCN(C)CC3)cc2)cc1Nc1nccc(-c2cccnc2)n1` [Imatinib]: the “Cmax,ss” value in [12] (400 mg qd) is listed as 2,596 ng/ml.
Take `Cc1ncc2n1-c1ccc(Cl)cc1C(c1ccccc1F)=NC2` [midazolam, Midazolam]: in series [19], the “fraction metabolized by CYP3A4 (fm)” value is 0.94 and the “fraction of drug escaping CYP3A4-mediated gut metabolism (FG)” value is 0.51.
On to `CC[C@H]1OC(=O)[C@H](C)[C@@H](O[C@H]2C[C@@](C)(OC)[C@@H](O)[C@H](C)O2)[C@H](C)[C@@H](O[C@@H]2O[C@H](C)C[C@H](N(C)C)[C@H]2O)[C@](C)(O)C[C@@H](C)CN(C)[C@H](C)[C@@H](O)[C@]1(C)O` [Azithromycin], for which the fraction unbound at 4 h, 1 µM in series [16] (setting [22]) turned out to be 0.766; in [16] (setting [23]), 0.765.
For `CCc1nn(CCCN2CCN(c3cccc(Cl)c3)CC2)c(=O)n1CCOc1ccccc1` [Nefazodone], in [9], it took 2590 ± 220 nM to reach half-maximal inhibition (IC50 at 5 min) and the Ki at 5 min was 242 nM. Moreover, in series [12] (200 mg bid), the “Cave,ss” value was 582 ng/mL and the “Cmax,ss” value is 1,400 ng/ml. The Fa in series [12] is reported as 1.00. Besides, the fraction unbound at 4 h in [13] is 0.0019 ± 0.0001. Besides, the Fic in series [14] came out at 0.015 ± 0.002. Also, in [18], the Kp at 0.5 µM was determined as 8.1 ± 1.3. For the same compound, in series [15], the Kpcyto is reported as 11 ± 1.6, the Fcyto is 0.021 ± 0.003 and the Fic/Fcyto stood at 0.74. Besides, the fraction unbound at 4 h, 1 µM in series [16] (setting [22]) was determined as 0.187. Further, in series [16] (setting [23]), the fraction unbound at 4 h, 1 µM was found to be 0.18.
Consider `Cc1ccc(Nc2nccc(N(C)c3ccc4c(C)n(C)nc4c3)n2)cc1S(N)(=O)=O` [Pazopanib], for which, in series [12] (800 mg qd), the “Cave,ss” value was 30,971 ng/ml. Besides, the Fa in series [12] is on record as 0.80. The “Substrate of other transporters in vitro” value in series [17] was “OATP1B1/3, OCT1”.
